Where “and” joins values, the source holds several entries; their conditions need not be identical. Equal values may be shown once. Read-outs that look alike come from different tables or passages of the source. Marks after values point to notes of the source that are not given here.
Legend:
[1] = tested on: Penicillin-resistant S. pneumoniae strains; assay: Checkerboard test with penicillin against penicillin-resistant S. pneumoniae; format: cell-based, Streptococcus pneumoniae; settings: Streptococcus pneumoniae, agent alone
Description: (§1) Minimum inhibitory concentration (MIC) assays for the antibacterial activities of the compounds were performed according to the standard […] method of the Clinical and Laboratory Standards Institute of America. MIC testing of drug-resistant S. pneumoniae, drug-resistant S. aureus, streptococci and antimicrobial combination was also performed using the same method. Briefly, the drugs were serially diluted 2-fold into eight wells with C+Y medium, yielding final concentrations ranging from […]. Then 10^6 CFU bacteria were added to each well. Inoculated medium containing 1% DMSO served as a bacterial growth control, whereas uninoculated medium served as a sterility control. The plates were incubated at 37°C for 12–16 h. […] The experiment was repeated three times.
The antimicrobial effects of different combinations of two antimicrobial agents were assayed using the checkerboard test (Bajaksouzian et al., [1997]). Each experiment was repeated thrice. The in vitro interaction between the five drugs with PEN was quantified by the fractional inhibitory concentration (FIC). The FIC index (FICI) was calculated using the following formula:
(2) FIC=FICA+FICB=[A]/MICA+[B]/MICB
where [A] and [B] are the concentrations of drugs A and B, respectively; MICA and FICA are the MIC and FIC of drug A for the organism, respectively; and MICB, and FICB are the MIC and FIC of drug B for the organism, respectively. The FIC index obtained was interpreted as follows: =0.5, synergy; FIC > 2.0, antagonism (Gupta and Kohli, [2003]).

[2] = tested on: pneumococcal strains; assay: MIC against clinical pneumococcal strains (penicillin susceptible, intermediate, resistant); format: cell-based, Streptococcus pneumoniae; settings: for MIC50 / MIC90: Streptococcus pneumoniae
Description: as §1

[3] = tested on: clinical S. pneumoniae 19A (CMCC31689); assay: Mouse colonization model, serotype 19A; format: in vivo, BALB/c mice; settings: for Mean log CFU at site of infection: 19A; for reduction of 19A bacterial numbers: at 24 h
Description: In colonization models, the mice were intranasally challenged by 20 μL of clinical drug-resistant strains (pneumococcal serotype 19F or 19A, 1.5 × 10^8 CFU). An hour later, the mice were intraperitoneally injected with 100 μL drugs (2 × MIC) alone or in combination with PEN (2 × MIC). These injections were continued thrice a day for 3 d. Nasal wash and lung tissues were obtained to analyze the bacteria load at 24, 48, and 72 h after drug infection. Then 100 μL aliquots of the samples diluted were plated on blood agar plates. The colonies were counted after incubation overnight at 37°C with 5% CO2.

[4] = tested on: S. pyogenes; assay: MIC against S. pyogenes; format: cell-based; settings: Streptococcus pyogenes
Description: as §1

[5] = tested on: S. mitis; assay: MIC against S. mitis; format: cell-based; settings: Streptococcus mitis
Description: as §1

[6] = tested on: S. pneumoniae NCTC7466; assay: Mouse sepsis model, survival time; format: in vivo, BALB/c mice; settings: i.p. infection 1 × 10^3 CFU; drug i.p. thrice a day for 3 d; untreated control 28.8 ± 1.25
Description: Female BALB/c mice (12–15 per group) aged 4–6 weeks were used to evaluate the antimicrobial effects of the compounds in vivo. In sepsis models, the mice were intraperitoneally infected with 100 μL S. pneumoniae NCTC7466 strain suspension (1 × 10^3 CFU). […] Two control groups were injected with 100 μL 1% DMSO (dissolved the drugs, negative control) or PEN (0.42 mg/kg/d, positive control) following the same injection route. The result was expressed as cumulative survival times following 7 d of observation.

[7] = tested on: S. pneumoniae NCTC7466; assay: MIC against S. pneumoniae NCTC7466 (D39); format: cell-based; settings: Streptococcus pneumoniae
Description: as §1

[8] = tested on: S. pneumoniae NCTC7466 biofilm; assay: Biofilm-killing assay (crystal violet); format: cell-based, Streptococcus pneumoniae; settings: crystal violet staining; 15.6–2000 μM; MIC or sub-MIC levels
Description: Biofilm formation was detected using a semiquantitative plate assay (Moscoso et al., [2006]). 10^6 CFU of D39 was incubated in C+Y medium for 6 h in a 96-well plate at 37°C. Then removed the planktonic cells, fresh C+Y medium containing the serially diluted drugs was added to each well and incubated for another 12 h at 37°C. The wells were washed gently three times with phosphate-buffered saline (PBS) and then stained with 1% (w/v) crystal violet. 200 μL methanol was added to dissolve the precipitate and determine the absorbance of the wells at 590 nm using a spectrophotometer (DTX880, Beckman Coulter, USA). The values of biofilm formation were normalized for absorbance, and the percentages were calculated in relation to control. The experiment was repeated twice.

[9] = molecular target: T1, full-length VicK protein (Streptococcus pneumoniae, UniProt Q8DPL8); assay: Inhibition assay for ATPase activity of VicK (Kinase-Glo Luminescent Kinase Assay); format: biochemical; settings: 6 μg VicK, 5 μM ATP
T1 construct: 6 His; made in house
Description: The inhibitory activities of the Chinese medicine monomers for the ATPase activity of the full-length VicK protein were evaluated using the Kinase-Glo™Luminescent Kinase Assay (Promega, Madison, USA). Briefly, 6 μg VicK protein was pre-incubated with a series of dilution of compounds in the reaction buffer at 37°C for 30 min. 5 μM ATP was added and incubated for another 30 min. Kinase-Glo™Reagent was also added to detect the remaining ATP recorded from luminescence measurements (RLU). In parallel, the VicK protein with no addition of compounds was used as a control, and the mixture with compounds excluding the VicK protein served as another control. The rate of protein phosphorylation (Rp) inhibition by the compounds was calculated from Equation (1).
(1) Rp=1−RLU(compound+ATP+Reagent) −RLU(compound+ATP+vick+Reagent)/RLU(ATP +Reagent)−RLU(ATP+vick+Reagent)×100%
The half maximal inhibitory concentration (IC50), which is the concentration of inhibition of 50% VicK protein autophosphorylation, was determined by GraphPad Prism 5 (Qin et al., [2006]).

[10] = tested on: Methicillin resistant S. aureus; assay: MIC against methicillin resistant S. aureus; format: cell-based; settings: Staphylococcus aureus
Description: as §1

[11] = tested on: S. mutans; assay: MIC against S. mutans; format: cell-based; settings: Streptococcus mutans
Description: as §1

[12] = Penicillin intermediate (n = 12)
[13] = NW (nasal wash), 24 h, i.p. three times a day for 3 days, control 7.29

T1 sequence (Q8DPL8 whole entry): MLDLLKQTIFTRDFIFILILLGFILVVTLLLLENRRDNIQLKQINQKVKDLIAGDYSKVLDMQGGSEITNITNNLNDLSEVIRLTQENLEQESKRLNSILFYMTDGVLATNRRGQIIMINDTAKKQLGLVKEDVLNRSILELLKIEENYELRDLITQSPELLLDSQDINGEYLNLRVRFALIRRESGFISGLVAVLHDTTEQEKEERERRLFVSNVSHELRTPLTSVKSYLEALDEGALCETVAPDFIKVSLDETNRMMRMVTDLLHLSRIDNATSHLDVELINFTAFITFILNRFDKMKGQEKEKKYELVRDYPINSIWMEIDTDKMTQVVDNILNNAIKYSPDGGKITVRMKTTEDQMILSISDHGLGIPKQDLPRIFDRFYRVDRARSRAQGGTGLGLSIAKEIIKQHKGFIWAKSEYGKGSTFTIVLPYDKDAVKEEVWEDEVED

CC(C)=CCCC1=CC(=O)c2c(O)ccc(O)c2C1=O [Compound 3, Deoxyshikonin]
MIC ([1]; read-out: MIC, Alone, strain 652336): 136 µg/mL
MIC ([1]; read-out: MIC, Alone, strain 736007): 136 µg/mL
MIC ([1]; read-out: MIC, Alone, strain 8364981): 136 µg/mL
MIC ([1]; read-out: MIC, Alone, strain 12092624): 136 µg/mL
MIC of pneumococcal strains, Range [2, 12]: 34 to 196 µg/mL
MIC of pneumococcal strains, MIC50 ([2]; Penicillin resistant (n = 15)): 17 µg/mL
MIC of pneumococcal strains, Range ([2]; Penicillin resistant (n = 15)): 8.5 to 136 µg/mL
MIC of pneumococcal strains, Range ([2]; Penicillin susceptible (n = 7)): 17 to 34 µg/mL
MIC50 ([2]; read-out: MIC of pneumococcal strains, MIC50, Penicillin intermediate (n = 12)): 68 µg/mL
MIC50 ([2]; read-out: MIC of pneumococcal strains, MIC50, Penicillin resistant (n = 15)): 17 µg/mL
MIC50 ([2]; read-out: MIC of pneumococcal strains, MIC50, Penicillin susceptible (n = 7)): 17 µg/mL
MIC90 ([2]; read-out: MIC of pneumococcal strains, MIC90, Penicillin intermediate (n = 12)): 196 µg/mL
MIC90 ([2]; read-out: MIC of pneumococcal strains, MIC90, Penicillin resistant (n = 15)): 68 µg/mL
MIC90 ([2]; read-out: MIC of pneumococcal strains, MIC90, Penicillin susceptible (n = 7)): 34 µg/mL
Mean log CFU at site of infection ([3]; Lung, 24 h, control 4.85): 1 log CFU
Mean log CFU at site of infection ([3]; Lung, 48 h, control 6.12): 2.39 (0.0001)^b log CFU
Mean log CFU at site of infection ([3]; Lung, 72 h, control 6.29): 1.05 (0.04)^b log CFU
Mean log CFU at site of infection [3, 13]: 6.08 (0.026)^b log CFU
Mean log CFU at site of infection ([3]; NW, 48 h, control 5.97): 2.76 (0.005)^b log CFU
Mean log CFU at site of infection ([3]; NW, 72 h, control 6.01): 3 (0.011)^b log CFU
reduction of 19A bacterial numbers [3]: two-log reduction
MIC [4]: 8.5 µg/mL
MIC [5]: 125 µg/mL
Mean survival of mice ± SEM [6]: 50.6 ± 4.1 h
MIC ([7]; NCTC7466): 17 µg/mL and 62 µM
inhibition of biofilm formation [8]: inhibit biofilm formation at sub-MIC
IC50 ([9]; read-out: IC50 (inhibition of VicK ATPase activity / autophosphorylation) (converted)): 15.4 µM
IC50 ([9]; value in parentheses, read-out: IC50 (inhibition of VicK ATPase activity / autophosphorylation) (converted)): 15.4 µM
MIC [10]: 34 to 68 µg/mL
MIC [11]: 34 µg/mL

CCCCCCCCCCCCOC(=O)c1cc(O)c(O)c(O)c1 [Compound 5, Dodecyl gallate]
MIC ([1]; strain 652336, read-out: MIC, Alone): 84.4 µg/mL
MIC ([1]; strain 736007, read-out: MIC, Alone): 337 µg/mL
MIC ([1]; strain 8364981, read-out: MIC, Alone): 168 µg/mL
MIC ([1]; strain 12092624, read-out: MIC, Alone): 84.4 µg/mL
MIC of pneumococcal strains, Range [2, 12]: 42 to 168 µg/mL
MIC of pneumococcal strains, MIC50 ([2]; Penicillin resistant (n = 15)): 42 µg/mL
MIC of pneumococcal strains, Range ([2]; Penicillin resistant (n = 15)): 10.5 to 168.8 µg/mL
MIC of pneumococcal strains, Range ([2]; Penicillin susceptible (n = 7)): 21 to 168 µg/mL
MIC50 ([2]; Penicillin intermediate (n = 12), read-out: MIC of pneumococcal strains, MIC50): 84 µg/mL
MIC90 ([2]; Penicillin intermediate (n = 12), read-out: MIC of pneumococcal strains, MIC90): 168 µg/mL
MIC50 ([2]; Penicillin resistant (n = 15), read-out: MIC of pneumococcal strains, MIC50): 42 µg/mL
MIC90 ([2]; Penicillin resistant (n = 15), read-out: MIC of pneumococcal strains, MIC90): 169 µg/mL
MIC50 ([2]; Penicillin susceptible (n = 7), read-out: MIC of pneumococcal strains, MIC50): 42 µg/mL
MIC90 ([2]; Penicillin susceptible (n = 7), read-out: MIC of pneumococcal strains, MIC90): 42 µg/mL
Mean log CFU at site of infection ([3]; Lung, 24 h, control 4.85): 1 log CFU
Mean log CFU at site of infection ([3]; Lung, 48 h, control 6.12): 3 log CFU
Mean log CFU at site of infection ([3]; Lung, 72 h, control 6.29): 2.82 log CFU
Mean log CFU at site of infection [3, 13]: 5.91 (0.021)^b log CFU
Mean log CFU at site of infection ([3]; NW, 48 h, control 5.97): 5.28 log CFU
Mean log CFU at site of infection ([3]; NW, 72 h, control 6.01): 3.62 (0.033)^b log CFU
reduction of 19A bacterial numbers [3]: two-log reduction
MIC ([4]; S. pyogenes clinical isolate, 10^6 CFU/ml, read-out: MIC): 42 µg/mL
MIC ([5]; S. mitis clinical isolate, 10^6 CFU/ml, read-out: MIC): 338 µg/mL
Mean survival of mice ± SEM [6]: 60.2 ± 7.3 h
MIC ([7]; S. pneumoniae NCTC7466 (D39), read-out: MIC): 21 µg/mL
MIC ([7]; S. pneumoniae NCTC7466 (D39), value in parentheses, read-out: MIC): 62 µM
inhibition of biofilm formation [8]: inhibit biofilm formation at sub-MIC
IC50 ([9]; IC50 (inhibition of VicK ATPase activity / autophosphorylation)): 9.1 µM
IC50 ([9]; IC50 (inhibition of VicK ATPase activity / autophosphorylation), value in parentheses): 9.07 µM
MIC ([10]; Methicillin resistant S. aureus (4 isolates), 10^6 CFU/ml, read-out: MIC): 84.4 to 336 µg/mL
MIC ([11]; S. mutans clinical isolate, 10^6 CFU/ml, read-out: MIC): 42 µg/mL
